The assay deals with GSK 3α (Homo sapiens (Human), UniProt P49840). The experiment in a line: GSK 3α enzyme inhibition (FRET, Z-LYTE; Method 2). Format: biochemical. The settings on record: read-out: IC50 Values for Enzyme Inhibition GSK3α. The procedure: The enzyme inhibitory activities of compounds disclosed herein are determined by FRET using synthetic peptides labelled with both donor and acceptor fluorophores (Z-LYTE, Invitrogen Ltd., Paisley, UK).
The inhibitory activities of compounds of the invention against the GSK 3α enzyme isoform (Invitrogen), are evaluated by determining the level of activation I phosphorylation of the target peptide. The GSK3-α protein (500 ng/mL, 2.5 μL) is mixed with the test compound (2.5 μL at either 4 μg/mL, 0.4 μg/mL, 0.04 μg/mL, or 0.004 μg/mL) for 2 hr at RT. The FRET peptide (8 μM, 2.5 μL), which is a phosphorylation target for GSK3α, and ATP (40 μM, 2.5 μL) are then added to the enzyme\compound mixture and the resulting mixture incubated for 1 hr. Development reagent (protease, 5 μL) is added for 1 hr prior to detection in a fluorescence microplate reader (Varioskan® Flash, ThermoFisher Scientific).
In all cases, the site-specific protease cleaves non-phosphorylated peptide only and eliminates the FRET signal. Phosphorylation levels of each reaction are calculated using the ratio of coumarin emission (donor) over fluorescein emission (acceptor), for which high ratios indicate high phosphorylation and low ratios indicate low phosphorylation levels.
This method follows the same steps as Method 1 above, but utilises a shorter period of mixing of the test compound (105 minutes instead of 2 hours) with the GSK3-α protein. In addition, the concentrations of test compound employed are either 10 μg/mL, 1 μg/mL, 0.1 μg/mL, or 0.01 μg/mL

These results are taken from patent US9481648B2, “Kinase inhibitors” (Respivert Limited, priority 2013, dated 2016).

Chain of GSK 3α (P49840 whole entry, canonical isoform): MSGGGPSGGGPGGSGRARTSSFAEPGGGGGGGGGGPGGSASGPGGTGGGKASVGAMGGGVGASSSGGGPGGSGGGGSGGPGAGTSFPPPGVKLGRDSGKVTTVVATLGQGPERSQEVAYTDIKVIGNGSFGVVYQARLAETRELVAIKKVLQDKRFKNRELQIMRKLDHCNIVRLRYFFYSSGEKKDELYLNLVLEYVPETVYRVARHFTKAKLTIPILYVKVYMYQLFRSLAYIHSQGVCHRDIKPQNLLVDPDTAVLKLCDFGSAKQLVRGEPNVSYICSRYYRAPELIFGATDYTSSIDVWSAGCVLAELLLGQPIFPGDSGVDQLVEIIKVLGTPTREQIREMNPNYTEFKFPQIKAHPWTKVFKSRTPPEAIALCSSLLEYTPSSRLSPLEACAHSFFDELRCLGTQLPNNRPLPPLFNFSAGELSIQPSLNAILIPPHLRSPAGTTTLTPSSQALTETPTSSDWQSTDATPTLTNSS

The IC50 is the midpoint of a concentration-inhibition curve. In the case of `COCCOCCOCCOc1cc(Nc2nccc(Oc3ccc(NC(=O)Nc4cc(C(C)(C)C)cc(NS(=O)(=O)C5CCCCC5)c4OC)c4ccccc34)n2)cc(OC)c1` [Example 72, N-(5-(tert-Butyl)-2-methoxy-3-(3-(4-((2-((3-methoxy-5-(2-(2-(2-methoxyethoxy)ethoxy)-ethoxy)phenyl)amino)pyrimidin-4-yl)oxy)naphthalen-1-yl)ureido)phenyl)cyclohexane-sulfonamide], the IC50 was 11.3 µM.
As for `COc1cc(Nc2cc(Oc3ccc(NC(=O)Nc4cc(C(C)(C)C)cc(NS(C)(=O)=O)c4OC)c4ccccc34)ccn2)cc(C(=O)NCCN2CC[S+]([O-])CC2)c1` [85(j), 3-[[4-[[4-[[5-tert-Butyl-3-(methanesulfonanido)-2-methoxyphenyl]-carbamoylamino]-1-naphthyl]oxy]-2-pyridyl]amino]-5-methoxy-N-[2-(1-oxo-1,4-thiazinan-4-yl)ethyl]benzamide], the 50% inhibitory concentration (IC50) worked out at 0.736 µM.
For the molecule `COCCOCCOCCOc1cc(Nc2nccc(Oc3ccc(NC(=O)Nc4cc(C(C)(C)C)cc(NS(=O)(=O)N(C)C)c4OC)c4ccccc34)n2)cc(OC)c1` [Example 74, N-(5-(tert-Butyl)-2-methoxy-3-(3-(4-((2-((3-methoxy-5-(2-(2-(2-methoxyethoxy)ethoxy)-ethoxy)phenyl)amino)pyrimidin-4-yl)oxy)naphthalen-1-yl)ureido)phenyl)dimethylamino-sulfonamide], the 50% inhibitory concentration (IC50) amounted to 9.68 µM.
For `COc1c(NC(=O)Nc2ccc(Oc3ccnc(Nc4ccccc4)c3)c3ccccc23)cc(C(C)(C)C)cc1C(=O)NC1CCN(C)CC1` [84(b), 3-[[4-[(2-Anilino-4-pyridyl)oxy]-1-naphthyl]carbamoylamino]-5-tert-butyl-2-methoxy-N-(1-methyl-4-piperidyl)benzamide] the value was 4.51 µM; for `COCCOCCOCCOc1cc(Nc2nccc(Oc3ccc(NC(=O)Nc4cc(C(C)(C)C)cc(NS(=O)(=O)N5CCCCC5)c4OC)c4ccccc34)n2)cc(OC)c1` [Example 73, N-(5-(tert-Butyl)-2-methoxy-3-(3-(4-((2-((3-methoxy-5-(2-(2-(2-methoxyethoxy)ethoxy)-ethoxy)phenyl)amino)pyrimidin-4-yl)oxy)naphthalen-1-yl)ureido)phenyl)piperidine-1-sulfonamide], 11.3 µM; for `COCCOCCOCCOc1cc(Nc2nccc(Oc3ccc(NC(=O)Nc4cc(C(C)(C)C)cc(C(=O)NCC(=O)O)c4OC)c4ccccc34)n2)cc(OC)c1` [Example 44, 2-(5-(tert-Butyl)-2-methoxy-3-(3-(4-((2-((3-methoxy-5-(2-(2-(2-methoxyethoxy)ethoxy)-ethoxy)phenyl)amino)pyrimidin-4-yl)oxy)naphthalen-1-yl)ureido)benzamido)acetic acid], 0.08 µM.
Regarding `COCCOCCOCCOc1cc(Nc2nccc(Oc3ccc(NC(=O)Nc4cc(C(C)(C)C)cc5[nH]c(=O)oc45)c4ccccc34)n2)cc(OC)c1` [Example 63, 1-(5-(tert-Butyl)-2-oxo-2,3-dihydrobenzo[d]oxazol-7-yl)-3-(4-((2-((3-methoxy-5-(2-(2-(2-methoxyethoxy)ethoxy)ethoxy)phenyl)amino)pyrimidin-4-yl)oxy)naphthalen-1-yl)urea], the IC50 worked out at 0.829 µM.
On to `COc1cc(Nc2nccc(Oc3ccc(NC(=O)Nc4cc(C(C)(C)C)cc(NS(C)(=O)=O)c4OC)c4ccccc34)n2)cc(C(=O)NCCOCCOCCC(=O)O)c1` [Example 26], for which the half-inhibitory concentration (IC50) turned out to be 0.051 µM.
For `COc1c(NC(=O)Nc2ccc(Oc3ccnc(Nc4ccccc4)c3)c3ccccc23)cc(C(C)(C)C)cc1NS(=O)(=O)N1CCOCC1` [83(f), N-(5-(tert-butyl)-2-methoxy-3-(3-(4-((2-(phenylamino)pyridin-4-yl)oxy)naphthalen-1-yl)ureido)phenyl)morpholine-4-sulfonamide] the value was 14.4 µM; for `CNC(=O)c1cc(N2CCOCC2)cc(NC(=O)Nc2ccc(Oc3ccnc(Nc4cc(OC)cc(OCCOCCOCCOC)c4)n3)c3ccccc23)c1OC` [Example 32, 2-Methoxy-3-(3-(4-((2-((3-methoxy-5(2-(2-(2-methoxyethoxy)ethoxy)ethoxy)phenyl)-amino)pyrimidin-4-yl)oxy)naphthalen-1-yl)ureido)-N-methyl-5-morpholinobenzamide], 0.629 µM; for `COCCOCCOCCOc1cc(Nc2nccc(Oc3ccc(NC(=O)Nc4cc(C(C)(C)C)ccc4OC)c4ccccc34)n2)cc(OC)c1` [Example 8, 1-(5-(tert-Butyl)-2-methoxhenv)-3-(4-((2-((3-methoxy-5-(2-(2-(2-methoxyethoxy)ethoxy)-ethoxy)phenyl)amino)pyrimidin-4-yl)oxy)naphthalen-1-yl)urea], 9.94 µM.
As for `C#Cc1cc(Nc2cc(Oc3ccc(NC(=O)Nc4cc(C(C)(C)C)cc(NS(C)(=O)=O)c4OC)c4ccccc34)ccn2)cc(C(=O)NCCN2CCN(C)CC2)c1` [Example 85(c), 3-[[4-[[4-[[5-tert-Butyl-3-(methanesulfonamido)-2-methoxyphenyl]-carbamoylamino]-1-nahthyl]oxy]-2-pyridyl]amino]-5-ethynyl-N-[2-(4-methylpiperazin-1-yl)ethyl]benzamide], the figure is 3.56 µM; as for `C#Cc1cc(Nc2nccc(Oc3ccc(NC(=O)Nc4cc(C(C)(C)C)cc(C(=O)NC)c4OC)c4ccccc34)n2)cc(C(=O)N[C@@H](C)CN2CCOCC2)c1` [Example 60, (S)-5-(tert-Butyl)-3-(3-(4-((2-((3-ethynyl-5-((1-morpholinopropan-2-yl)carbamoyl)phenyl)amino)pyrimidin-4-yl)oxy)naphthalen-1-yl)ureido)-2-methoxy-N-methylbenzamide], 0.539 µM.
Consider `COc1cc(Nc2nccc(Oc3ccc(NC(=O)Nc4cc(C(C)(C)C)cc(NS(C)(=O)=O)c4OC)c4ccccc34)n2)cc(C(=O)C2CC2)c1` [Example 50, N-(5-(tert-Butyl)-3-(3-(4-((2-((3-(cyclopropanecarbonyl)-5-methoxyphenyl)amino)-pyrimidin-4-yl)oxy)naphthalen-1-yl)ureido)-2-methoxyphenyl)methanesulfonamide], for which the 50% inhibitory concentration (IC50) was 13.8 µM.
On to `COc1cc(Nc2cc(Oc3ccc(NC(=O)Nc4cc(C(C)(C)C)cc(NS(C)(=O)=O)c4OC)c4ccccc34)ccn2)cc(C(=O)NCCN2CCCCC2)c1` [83(e), 3-((4-((4-(3-(5-(tert-butyl)-2-methoxy-3-(methylsulfonamido)phenyl)ureido)naphthalen-1-yl)oxy)pyridin-2-yl)amino)-5-methoxy-N-(2-(piperidin-1-yl)ethyl)benzamide], for which the IC50 was determined as 1.59 µM.
As for `COc1c(NC(=O)Nc2ccc(Oc3ccnc(Nc4ccccc4)c3)c3ccccc23)cc(C(C)(C)C)cc1C(=O)N[C@@H]1CCOC1` [84(c), 3-[[4-[(2-Anilino-4-pyridyl)oxy]-1-naphthyl]carbamoylamino]-5-tert-butyl-2-methoxy-N-[(3R)-tetrahydrofuran-3-yl]benzamide], the figure is 4.95 µM.
As for `COCCOCCOCCOc1cc(Nc2nccc(Oc3ccc(NC(=O)Nc4cc(C(C)(C)C)cc(C(=O)N(C)C)c4OC)c4ccccc34)n2)cc(OC)c1` [Example 19, 5-(tert-yl)-)-2-methoxy-3-(3-(4-((2-((3-methoxy-5-(2-(2-(2-methoxyethoxy)ethoxy)-ethoxy)phenyl)amino)pyrimidin-4-yl)oxy)naphthalen-1-yl)ureido-N,N-dimethylbenzamide], the figure is 4.43 µM.
